Test results as given in the kinase profiling compilation of Christmann-Franck et al. (2016).
Values joined by “and” are separate entries in the source; they are usually repeats but may differ in a detail not shown here. Equal entries are not always repeated. One block for each molecule: values may come before it.

How the values were obtained:
Test in all cases: Caliper, Mobility shift assay off-chip
JAK2 JH1 JH2 (human) = JAK2 JH1 JH2 (human) (UniProt O60674)
NEK9 (human) = NEK9 (human) (UniProt Q8TD19)
TNIK (human) = TNIK (human) (UniProt Q9UKE5)
RPS6KA1 KD1 KD2 (human) = RPS6KA1 KD1 KD2 (human) (UniProt Q15418)
STK10 (human) = STK10 (human) (UniProt O94804)
JAK3 JH1 JH2 (human) = JAK3 JH1 JH2 (human) (UniProt P52333)
TBK1 (human) = TBK1 (human) (UniProt Q9UHD2)
SIK1 (human) = SIK1 (human) (UniProt P57059)
DCLK2 (human) = DCLK2 (human) (UniProt Q8N568)
PDK2 (human) = PDK2 (human) (UniProt Q15119)
HIPK4 (human) = HIPK4 (human) (UniProt Q8NE63)
CDK9 (human) = CDK9 (human) (UniProt P50750)
SRPK2 (human) = SRPK2 (human) (UniProt P78362)
MAPK9 (human) = MAPK9 (human) (UniProt P45984)
PRKCD (human) = PRKCD (human) (UniProt Q05655)
DDR1 (human) = DDR1 (human) (UniProt Q08345)
SIK2 (human) = SIK2 (human) (UniProt Q9H0K1)
NTRK2 (human) = NTRK2 (human) (UniProt Q16620)
TSSK1B (human) = TSSK1B (human) (UniProt Q9BXA7)
CSNK1D (human) = CSNK1D (human) (UniProt P48730)
IKBKB (human) = IKBKB (human) (UniProt O14920)
MAPK11 (human) = MAPK11 (human) (UniProt Q15759)
PDK4 (human) = PDK4 (human) (UniProt Q16654)
PASK (human) = PASK (human) (UniProt Q96RG2)
NUAK2 (human) = NUAK2 (human) (UniProt Q9H093)
WNK2 (human) = WNK2 (human) (UniProt Q9Y3S1)
CAMK4 (human) = CAMK4 (human) (UniProt Q16566)
PRKCZ (human) = PRKCZ (human) (UniProt Q05513)
PRKD2 (human) = PRKD2 (human) (UniProt Q9BZL6)
EPHB1 (human) = EPHB1 (human) (UniProt P54762)
EPHB4 (human) = EPHB4 (human) (UniProt P54760)
CSNK1G1 (human) = CSNK1G1 (human) (UniProt Q9HCP0)
RPS6KA2 KD1 KD2 (human) = RPS6KA2 KD1 KD2 (human) (UniProt Q15349)
HIPK3 (human) = HIPK3 (human) (UniProt Q9H422)

Sequence of TSSK1B (human) (Q9BXA7 whole entry, looked up): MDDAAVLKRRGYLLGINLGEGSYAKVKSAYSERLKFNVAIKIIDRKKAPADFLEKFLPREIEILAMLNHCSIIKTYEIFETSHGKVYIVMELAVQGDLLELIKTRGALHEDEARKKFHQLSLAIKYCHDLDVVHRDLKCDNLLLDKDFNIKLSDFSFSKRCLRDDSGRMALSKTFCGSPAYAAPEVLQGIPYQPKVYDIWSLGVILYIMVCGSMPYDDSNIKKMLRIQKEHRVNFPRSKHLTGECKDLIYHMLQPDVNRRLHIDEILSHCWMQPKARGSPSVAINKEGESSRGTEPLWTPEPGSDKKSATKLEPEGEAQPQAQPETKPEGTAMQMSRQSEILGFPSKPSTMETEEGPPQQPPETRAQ
Sequence of PASK (human) (Q96RG2 whole entry, looked up): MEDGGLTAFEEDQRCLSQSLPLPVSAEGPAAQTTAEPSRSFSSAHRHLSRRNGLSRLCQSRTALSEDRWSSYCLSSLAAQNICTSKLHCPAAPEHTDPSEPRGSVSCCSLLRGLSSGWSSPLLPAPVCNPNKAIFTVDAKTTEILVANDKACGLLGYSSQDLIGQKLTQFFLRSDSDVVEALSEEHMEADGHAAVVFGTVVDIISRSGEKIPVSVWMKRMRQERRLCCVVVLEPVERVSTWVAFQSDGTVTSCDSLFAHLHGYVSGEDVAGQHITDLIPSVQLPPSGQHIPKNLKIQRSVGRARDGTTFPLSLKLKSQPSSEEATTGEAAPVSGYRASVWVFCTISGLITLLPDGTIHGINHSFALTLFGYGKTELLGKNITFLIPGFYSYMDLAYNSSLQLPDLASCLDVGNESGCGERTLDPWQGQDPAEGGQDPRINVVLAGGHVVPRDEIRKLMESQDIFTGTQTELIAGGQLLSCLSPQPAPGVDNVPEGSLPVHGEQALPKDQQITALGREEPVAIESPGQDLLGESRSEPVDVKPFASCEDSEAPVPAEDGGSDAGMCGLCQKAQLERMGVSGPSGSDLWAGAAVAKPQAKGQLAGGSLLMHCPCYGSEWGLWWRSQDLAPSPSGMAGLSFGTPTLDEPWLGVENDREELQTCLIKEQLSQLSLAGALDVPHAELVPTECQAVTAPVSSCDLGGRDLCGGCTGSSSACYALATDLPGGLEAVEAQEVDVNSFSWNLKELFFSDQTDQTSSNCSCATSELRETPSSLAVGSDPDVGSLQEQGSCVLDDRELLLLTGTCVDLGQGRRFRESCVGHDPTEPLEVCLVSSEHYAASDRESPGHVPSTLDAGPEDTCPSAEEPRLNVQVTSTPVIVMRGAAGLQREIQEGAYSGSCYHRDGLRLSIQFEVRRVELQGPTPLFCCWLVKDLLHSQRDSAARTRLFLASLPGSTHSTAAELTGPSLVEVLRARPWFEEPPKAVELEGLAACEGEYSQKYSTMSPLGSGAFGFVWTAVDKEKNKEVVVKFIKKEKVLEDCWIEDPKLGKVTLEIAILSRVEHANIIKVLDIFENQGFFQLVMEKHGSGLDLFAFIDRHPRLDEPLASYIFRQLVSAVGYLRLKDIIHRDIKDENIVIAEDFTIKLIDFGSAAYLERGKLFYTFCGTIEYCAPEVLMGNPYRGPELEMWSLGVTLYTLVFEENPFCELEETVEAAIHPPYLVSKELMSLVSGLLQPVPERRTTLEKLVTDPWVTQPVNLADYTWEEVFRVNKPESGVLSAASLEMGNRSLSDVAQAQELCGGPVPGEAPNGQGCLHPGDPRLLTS
Sequence of STK10 (human) (O94804 whole entry, looked up): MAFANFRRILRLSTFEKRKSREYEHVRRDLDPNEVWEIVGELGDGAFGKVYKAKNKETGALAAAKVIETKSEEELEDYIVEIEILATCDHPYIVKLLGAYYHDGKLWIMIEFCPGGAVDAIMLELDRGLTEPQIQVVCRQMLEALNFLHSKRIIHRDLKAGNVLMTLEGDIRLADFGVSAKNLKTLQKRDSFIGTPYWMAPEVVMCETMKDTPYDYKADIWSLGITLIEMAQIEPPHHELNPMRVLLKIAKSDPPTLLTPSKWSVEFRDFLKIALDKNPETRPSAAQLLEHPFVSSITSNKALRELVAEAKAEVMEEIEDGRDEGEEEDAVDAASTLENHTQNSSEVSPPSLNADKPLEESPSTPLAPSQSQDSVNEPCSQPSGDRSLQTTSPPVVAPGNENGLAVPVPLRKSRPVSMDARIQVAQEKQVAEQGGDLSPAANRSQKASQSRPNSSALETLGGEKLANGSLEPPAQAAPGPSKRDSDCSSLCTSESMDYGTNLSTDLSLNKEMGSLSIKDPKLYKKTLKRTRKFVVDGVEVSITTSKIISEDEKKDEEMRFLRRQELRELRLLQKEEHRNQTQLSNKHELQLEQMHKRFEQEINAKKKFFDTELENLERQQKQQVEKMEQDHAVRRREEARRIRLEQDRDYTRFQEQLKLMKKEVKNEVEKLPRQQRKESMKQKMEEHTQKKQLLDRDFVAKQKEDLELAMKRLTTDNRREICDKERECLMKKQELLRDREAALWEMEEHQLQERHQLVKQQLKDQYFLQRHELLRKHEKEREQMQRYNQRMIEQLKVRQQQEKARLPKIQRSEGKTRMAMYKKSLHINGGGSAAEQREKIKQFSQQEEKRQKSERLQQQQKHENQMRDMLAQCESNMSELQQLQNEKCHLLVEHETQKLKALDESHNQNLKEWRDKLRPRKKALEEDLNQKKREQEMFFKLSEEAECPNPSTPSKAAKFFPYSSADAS
Sequence of CAMK4 (human) (Q16566 whole entry, looked up): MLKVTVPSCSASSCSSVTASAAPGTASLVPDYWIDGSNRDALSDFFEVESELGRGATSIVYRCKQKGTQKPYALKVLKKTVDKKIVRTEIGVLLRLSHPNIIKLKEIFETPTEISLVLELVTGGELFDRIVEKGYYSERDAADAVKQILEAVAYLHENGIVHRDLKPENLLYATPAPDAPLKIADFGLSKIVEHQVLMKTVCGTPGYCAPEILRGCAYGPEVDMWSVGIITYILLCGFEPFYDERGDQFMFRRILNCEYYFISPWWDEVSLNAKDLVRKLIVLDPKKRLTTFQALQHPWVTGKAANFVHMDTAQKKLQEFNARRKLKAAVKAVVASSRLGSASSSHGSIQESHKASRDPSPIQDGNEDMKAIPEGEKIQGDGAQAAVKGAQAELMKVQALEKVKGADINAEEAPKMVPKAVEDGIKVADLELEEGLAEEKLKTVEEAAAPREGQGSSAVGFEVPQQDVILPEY
Sequence of PDK4 (human) (Q16654 whole entry, looked up): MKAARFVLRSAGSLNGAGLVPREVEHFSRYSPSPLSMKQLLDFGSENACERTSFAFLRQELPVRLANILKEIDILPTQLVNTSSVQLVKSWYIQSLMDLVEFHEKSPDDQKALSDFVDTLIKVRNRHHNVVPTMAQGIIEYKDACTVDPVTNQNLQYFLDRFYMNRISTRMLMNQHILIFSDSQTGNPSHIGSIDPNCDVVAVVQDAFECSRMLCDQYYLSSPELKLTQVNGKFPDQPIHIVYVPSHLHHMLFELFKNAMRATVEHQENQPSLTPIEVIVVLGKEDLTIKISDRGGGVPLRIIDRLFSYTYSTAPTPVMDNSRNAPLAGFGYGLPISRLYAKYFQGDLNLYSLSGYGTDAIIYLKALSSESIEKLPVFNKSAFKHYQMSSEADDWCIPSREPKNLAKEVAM
Sequence of SIK1 (human) (P57059 whole entry, looked up): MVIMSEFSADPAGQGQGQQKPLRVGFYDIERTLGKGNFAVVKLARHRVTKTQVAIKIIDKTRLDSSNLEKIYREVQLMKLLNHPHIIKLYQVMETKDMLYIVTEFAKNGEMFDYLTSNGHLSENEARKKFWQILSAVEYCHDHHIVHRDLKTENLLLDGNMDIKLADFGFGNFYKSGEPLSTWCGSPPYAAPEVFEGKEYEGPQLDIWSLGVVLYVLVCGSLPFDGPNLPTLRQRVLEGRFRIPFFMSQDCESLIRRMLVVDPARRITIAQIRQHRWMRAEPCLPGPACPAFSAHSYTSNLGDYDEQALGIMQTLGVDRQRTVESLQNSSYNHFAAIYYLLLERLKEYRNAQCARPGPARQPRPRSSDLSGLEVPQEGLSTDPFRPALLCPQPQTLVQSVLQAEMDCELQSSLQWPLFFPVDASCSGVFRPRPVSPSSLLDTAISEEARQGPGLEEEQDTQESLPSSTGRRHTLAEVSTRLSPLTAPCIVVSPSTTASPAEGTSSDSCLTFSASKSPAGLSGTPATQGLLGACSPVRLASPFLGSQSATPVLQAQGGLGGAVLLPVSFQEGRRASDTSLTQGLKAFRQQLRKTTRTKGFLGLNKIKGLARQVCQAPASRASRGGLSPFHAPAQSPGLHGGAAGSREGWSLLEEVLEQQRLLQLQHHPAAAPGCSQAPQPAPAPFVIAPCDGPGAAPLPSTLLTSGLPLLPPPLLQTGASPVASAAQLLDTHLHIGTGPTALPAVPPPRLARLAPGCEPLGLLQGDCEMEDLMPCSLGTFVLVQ
Sequence of MAPK11 (human) (Q15759 whole entry, looked up): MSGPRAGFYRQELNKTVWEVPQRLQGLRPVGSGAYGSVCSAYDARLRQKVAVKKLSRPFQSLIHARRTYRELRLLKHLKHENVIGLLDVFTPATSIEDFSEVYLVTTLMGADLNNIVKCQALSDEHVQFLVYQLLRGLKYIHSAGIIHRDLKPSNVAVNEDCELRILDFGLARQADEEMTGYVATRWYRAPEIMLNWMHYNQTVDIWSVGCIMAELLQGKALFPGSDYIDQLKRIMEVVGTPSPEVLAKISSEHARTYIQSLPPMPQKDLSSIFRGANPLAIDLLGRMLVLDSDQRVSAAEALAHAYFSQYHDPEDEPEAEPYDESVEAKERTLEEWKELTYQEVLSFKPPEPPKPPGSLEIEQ

inhibition (JAK2 JH1 JH2 (human); compound 0.2 µM): 36.5%
inhibition (JAK2 JH1 JH2 (human); compound 4.0 µM): 94.6%
inhibition (TNIK (human); compound 0.2 µM): 87.5%
inhibition (TNIK (human); compound 4.0 µM): 98.1%
inhibition (RPS6KA1 KD1 KD2 (human); compound 0.2 µM): 53.9%
inhibition (STK10 (human); compound 0.2 µM): 62.1%
inhibition (JAK3 JH1 JH2 (human); compound 0.2 µM): 37.5%
inhibition (JAK3 JH1 JH2 (human); compound 4.0 µM): 96%
inhibition (TBK1 (human); compound 0.2 µM): 28.1%
inhibition (TBK1 (human); compound 4.0 µM): 87.5%
inhibition (SIK1 (human); compound 0.2 µM): 15%
inhibition (SIK1 (human); compound 4.0 µM): 76.1%
inhibition (DCLK2 (human); compound 0.2 µM): 5.2%
inhibition (DCLK2 (human); compound 4.0 µM): 49.8%
inhibition (PDK2 (human); compound 0.2 µM): -1.2%
inhibition (PDK2 (human); compound 4.0 µM): 26%
inhibition (HIPK4 (human); compound 0.2 µM): 67.4%
inhibition (HIPK4 (human); compound 4.0 µM): 96.8%
inhibition (CDK9 (human); compound 0.2 µM): -0.1%
inhibition (CDK9 (human); compound 4.0 µM): 47.5%
inhibition (SRPK2 (human); compound 0.2 µM): -0.5%
inhibition (SRPK2 (human); compound 4.0 µM): 21.1%
inhibition (MAPK9 (human); compound 0.2 µM): -8.7%
inhibition (MAPK9 (human); compound 4.0 µM): -15.7%
inhibition (PRKCD (human); compound 0.2 µM): 0.9%
inhibition (PRKCD (human); compound 4.0 µM): 48.4%
inhibition (DDR1 (human); compound 0.2 µM): 71.8%
inhibition (DDR1 (human); compound 4.0 µM): 96.6%
inhibition (SIK2 (human); compound 0.2 µM): 46.8%
inhibition (SIK2 (human); compound 4.0 µM): 94.5%
inhibition (NTRK2 (human); compound 0.2 µM): 85.7%
inhibition (NTRK2 (human); compound 4.0 µM): 101%
inhibition (TSSK1B (human); compound 0.2 µM): 63.2%
inhibition (TSSK1B (human); compound 4.0 µM): 95.5%
inhibition (CSNK1D (human); compound 4.0 µM): 86.1% and 97.8%
inhibition (IKBKB (human); compound 0.2 µM): -2.1%
inhibition (IKBKB (human); compound 4.0 µM): 4.2%
inhibition (MAPK11 (human); compound 0.2 µM): -1.4%
inhibition (MAPK11 (human); compound 4.0 µM): -3.1%
inhibition (PDK4 (human); compound 0.2 µM): 1.6%
inhibition (PDK4 (human); compound 4.0 µM): 22.6%
inhibition (PASK (human); compound 0.2 µM): -4%
inhibition (PASK (human); compound 4.0 µM): 17.8%
inhibition (NUAK2 (human); compound 0.2 µM): 55.7%
inhibition (NUAK2 (human); compound 4.0 µM): 95.3%
inhibition (WNK2 (human); compound 0.2 µM): 1.7%
inhibition (WNK2 (human); compound 4.0 µM): -2.1%
inhibition (CAMK4 (human); compound 0.2 µM): 15.7%
inhibition (CAMK4 (human); compound 4.0 µM): 80.8%
inhibition (PRKCZ (human); compound 0.2 µM): -1.5%
inhibition (PRKCZ (human); compound 4.0 µM): 13.5%
Ki (PRKD2 (human)): 52 nM
inhibition (PRKD2 (human); compound 0.2 µM): 65.6%
inhibition (PRKD2 (human); compound 4.0 µM): 97.9%
inhibition (EPHB1 (human); compound 0.2 µM): 34.5%
inhibition (EPHB1 (human); compound 4.0 µM): 89%
Compound: CCN(CC)CCNC(=O)c1c(C)[nH]c(/C=C2\C(=O)Nc3ccc(F)cc32)c1C
inhibition (NEK9 (human); compound 0.2 µM): 0%
inhibition (NEK9 (human); compound 4.0 µM): 20.7%

inhibition (JAK2 JH1 JH2 (human); compound 0.02 µM): 4.8%
inhibition (JAK2 JH1 JH2 (human); compound 0.2 µM): 11.4%
inhibition (TNIK (human); compound 0.02 µM): 7.3%
inhibition (TNIK (human); compound 0.2 µM): 46.6%
inhibition (RPS6KA1 KD1 KD2 (human); compound 0.02 µM): 0.5%
inhibition (RPS6KA1 KD1 KD2 (human); compound 0.2 µM): 5.4%
inhibition (STK10 (human); compound 0.02 µM): 8.8%
inhibition (STK10 (human); compound 0.2 µM): 39.2%
inhibition (JAK3 JH1 JH2 (human); compound 0.02 µM): 4.1%
inhibition (JAK3 JH1 JH2 (human); compound 0.2 µM): 7.7%
inhibition (TBK1 (human); compound 0.02 µM): -0.2%
inhibition (TBK1 (human); compound 0.2 µM): -1.1%
inhibition (SIK1 (human); compound 0.02 µM): -3%
inhibition (SIK1 (human); compound 0.2 µM): 0%
inhibition (EPHB4 (human); compound 0.02 µM): -2.8%
inhibition (EPHB4 (human); compound 0.2 µM): -2.6%
inhibition (DCLK2 (human); compound 0.02 µM): -1.2%
inhibition (DCLK2 (human); compound 0.2 µM): -0.9%
inhibition (CSNK1G1 (human); compound 0.02 µM): -0.9%
inhibition (CSNK1G1 (human); compound 0.2 µM): -1%
inhibition (PDK2 (human); compound 0.02 µM): -2.3%
inhibition (PDK2 (human); compound 0.2 µM): -4.2%
inhibition (HIPK4 (human); compound 0.02 µM): 6.8%
inhibition (HIPK4 (human); compound 0.2 µM): 12.3%
inhibition (CDK9 (human); compound 0.02 µM): -2.5%
inhibition (CDK9 (human); compound 0.2 µM): 5.1%
inhibition (RPS6KA2 KD1 KD2 (human); compound 0.02 µM): 6.3%
inhibition (RPS6KA2 KD1 KD2 (human); compound 0.2 µM): 8.4%
inhibition (SRPK2 (human); compound 0.02 µM): -4.8%
inhibition (SRPK2 (human); compound 0.2 µM): -3.2%
inhibition (HIPK3 (human); compound 0.02 µM): 2.3%
inhibition (HIPK3 (human); compound 0.2 µM): 2.6%
inhibition (PRKCD (human); compound 0.02 µM): -1.6%
inhibition (PRKCD (human); compound 0.2 µM): -4.4%
inhibition (DDR1 (human); compound 0.02 µM): 19.6%
inhibition (DDR1 (human); compound 0.2 µM): 80.9%
inhibition (SIK2 (human); compound 0.02 µM): 1.3%
inhibition (SIK2 (human); compound 0.2 µM): 5.7%
inhibition (NTRK2 (human); compound 0.02 µM): 5.5%
inhibition (NTRK2 (human); compound 0.2 µM): 14.7%
inhibition (TSSK1B (human); compound 0.02 µM): -1.1%
inhibition (TSSK1B (human); compound 0.2 µM): -1.7%
inhibition (CSNK1D (human); compound 0.02 µM): -1.8% and -2.9%
inhibition (CSNK1D (human); compound 0.2 µM): -2.9% and -3.3%
inhibition (IKBKB (human); compound 0.02 µM): -3.7%
inhibition (IKBKB (human); compound 0.2 µM): -2.6%
inhibition (MAPK11 (human); compound 0.02 µM): -6.7%
inhibition (MAPK11 (human); compound 0.2 µM): 0.9%
inhibition (PDK4 (human); compound 0.02 µM): -0.5%
inhibition (PDK4 (human); compound 0.2 µM): 0.8%
inhibition (PASK (human); compound 0.02 µM): -0.6%
inhibition (PASK (human); compound 0.2 µM): 3.1%
inhibition (NUAK2 (human); compound 0.02 µM): -16.5%
inhibition (NUAK2 (human); compound 0.2 µM): 6.3%
inhibition (WNK2 (human); compound 0.02 µM): 1%
inhibition (WNK2 (human); compound 0.2 µM): 4.3%
inhibition (CAMK4 (human); compound 0.02 µM): -2.8%
inhibition (CAMK4 (human); compound 0.2 µM): -1.2%
inhibition (PRKCZ (human); compound 0.02 µM): 2.5%
inhibition (PRKCZ (human); compound 0.2 µM): -1.1%
inhibition (PRKD2 (human); compound 0.02 µM): -2.2%
inhibition (PRKD2 (human); compound 0.2 µM): -1.5%
inhibition (EPHB1 (human); compound 0.02 µM): -1%
inhibition (EPHB1 (human); compound 0.2 µM): -1.6%
Compound: Cc1ccc(Nc2nccc(N(C)c3ccc4c(C)n(C)nc4c3)n2)cc1S(N)(=O)=O
inhibition (NEK9 (human); compound 0.02 µM): -3.7%
inhibition (NEK9 (human); compound 0.2 µM): 1.4%
